Here are results for ten compounds from patent US20250051316A1, “2-(ARYL-2-YL) […] […], PREPARATION METHOD THEREFOR AND APPLICATION THEREOF” (SHANGHAI HANSOH BIOMEDICAL CO., LTD., priority 2021, published 2025).

Data set [1] in a line: Pharmacokinetic assay of Balb/c mice, plasma and brain, oral. Conditions: male, mouse, p.o. 5 mg/kg. It is filed as in vivo. The method, then:
Test Example 3. Pharmacokinetic Assay of Balb/c Mice
Balb/c Mice were used as test animals. The pharmacokinetic behavior of the compounds of the present invention was studied in the plasma and brain of mice administered orally at the dose of 5 mg/kg.
Balb/c Mice, male, Shanghai Jiesijie Experimental Animal Co., Ltd., animal production license number (SCXK (Shanghai) 2013-0006 N0.311620400001794).
After fasting overnight, 24 male Balb/c mice were administered p.o. at a dose of 5 mg/kg and an administration volume of 10 mL/kg, respectively.
Drug formulation for oral administration: 0.5% CMC-Na (1% Tween 80).
After CO2 euthanasia of experimental animals, heart blood and brain tissue were collected at 0.25 h, 0.5 h, 1 h, 2 h, 4 h, 6 h, 8 h, and 24 h after administration. The blood was placed in EDTA-2K tubes and centrifuged at 4° C. and 6000 rpm for 6 minutes to separate plasma. The brain tissue was washed with pre-cooled PBS, dried, weighed, and stored at −80° C. The animals were feed 4 hours after administration.
1) 160 μL of acetonitrile was added to 40 μL of the plasma sample for precipitation, and then the mixture was centrifuged at 3500×g for 5-20 min.
2) 100 μL of the supernatant was taken to analyze the concentration of the test compound by LC/MS/MS.
• Liquid chromatography condition: Shimadzu LC-20AD pump • Mass spectrometry condition: AB Sciex API 4000 mass spectrometer • Chromatographic column: phenomenex Gemiu 5 μm C18 50×4.6 mm • Mobile phase: Eluent A was 0.10% formic acid in water, and Eluent B was acetonitrile • Flow rate: […] • Elution time: 0-4.0 minutes, the eluent is as follows:
The main pharmacokinetic parameters were calculated using WinNonlin8.1, and the results of the pharmacokinetic experiments in mouse are shown in the table below.

The next data set concerns the target T1, TAAR1 receptor (Homo sapiens, UniProt Q96RJ0).
T1 construct: expressed in transfected cells
T1 sequence (Q96RJ0 1-339): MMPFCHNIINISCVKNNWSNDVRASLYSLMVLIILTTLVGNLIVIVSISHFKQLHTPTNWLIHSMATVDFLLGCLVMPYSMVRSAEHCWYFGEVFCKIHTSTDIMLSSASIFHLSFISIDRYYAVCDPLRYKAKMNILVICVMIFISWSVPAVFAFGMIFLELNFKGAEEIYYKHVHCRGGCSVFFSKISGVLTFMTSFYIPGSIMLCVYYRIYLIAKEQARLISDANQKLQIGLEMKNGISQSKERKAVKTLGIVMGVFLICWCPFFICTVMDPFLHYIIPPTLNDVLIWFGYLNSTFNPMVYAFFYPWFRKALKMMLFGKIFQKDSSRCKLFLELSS
The experiment in a line: Effect on cAMP content in cells which stably express TAAR1 receptor. It is filed as cell-based. The method, then: Test Example1. Determination of the effect of the present compound on cAMP content in cells which stably express TAAR1 receptor
Determination of the activation effect of compounds on TAAR1 receptors.
• 1) Preparation of experimental buffer: 1*HBSS+20 mM HEPES+0.1% BSA+500 μM IBMX. • 2) Complete medium: • Ham's F12K+10% Fetal Bovine Serum+1*Penicillin-Streptomycin+200 μg/mL Hygromycin B for CHO • DMEM+10% Fetal Bovine Serum+1*Penicillin-Streptomycin+200 μg/mL Hygromycin B for HEK293 • 3) TAAR1 cell line was cultured in complete medium at 37° C. and 5% CO2; After TrypLE digestion, the cells were resuspended in the experimental buffer and seeded into a 384 cell culture plate with a density of 8000 cells/15 ul/well. • 4) The compound was diluted with experimental buffer and added 5 μL to each well to culture at 37° C. for 30 minutes. • 5) cAMP-d2 and Anti cAMP Eu3+ were freeze thaw, and diluted 20 times with lysis buffer; 10 μL cAMP-d2 was added to the experimental well, and then 10 μL Anti cAMP Eu3+ was added into the experimental well; the reaction plate was centrifuged at 200 g for 30 seconds at room temperature, and stand at 25° C. for 1 hour; data was collected by Envision.
[formula] • 5) EC50 of compounds was calculated using GraphPad nonlinear fitting formula:
[formula] • X: Log value of the compound concentration; Y: Activation %

The subject of data set [2] is C57BL/6 mice, high spontaneous activity induced by phencyclidine (PCP). The data set can be described thus: High spontaneous activity model of mice induced by phencyclidine (PCP). It is filed as in vivo. Conditions: 60 minutes after modeling. From the text: Test Example 2. Pharmacodynamic Evaluation of the Present Compounds in Mice Model of High Spontaneous Activity Induced by Phencyclidine (PCP)
The purpose of the experiment is to evaluate the efficacy of compounds in a high spontaneous activity model of C57BL/6 mice induced by phencyclidine (PCP) using the spontaneous activity method.
C57BL/6 mice, provided by Shanghai Lingchang Biotechnology Co., Ltd., male, 6-8 weeks, 20-24 g, 36 mice.
The day before the experimental test, the animals were placed in the laboratory and acclimated for 8 hours.
On the day of adaptation, the animals were randomly grouped according to their weight.
The animals were weithed and treated with solvent control (20% HP-3-CD), compounds of the present invention (oral administration) respectively. 30 minutes later, modeling (intraperitoneal administration) was performed, and the animals were given physiological saline or phencyclidine, with dosage volume of 10 mL/kg.
After the administration, the animals were placed in observation box and the spontaneous activity was detected for 30 minutes. The moving distance (meters) of the animals in the observation box was counted every 5 minutes.
After 30 minutes, the animals were taken out for modeling and then placed in the observation box to test their spontaneous activity for 60 minutes. The moving distance (meters) of the animals in the observation box was counted every 5 minutes.
Excel software was used to collect data. A Two-Way ANOVA or One-Way ANOVA was conducted used Prism (Graph pad software, Inc.) software. p<0.05 was considered significant difference.

On to `[2H]C1([2H])COC(c2cc(C)ccn2)CN1` (single isomer, unassigned) [Example 16-1, 2-(4-Methylpyridin-2-yl)morpholin-5,5-d2], for which, in data set [1] (Brain), the AUC(0-t) stood at 5630 ng·h/mL, the Cmax worked out at 1740 ng/mL, the Tmax was determined as 15 min and the half-life is 174 min. In data set [1] (Plasma), the AUC(0-t) is 2270 ng·h/mL, the peak level (Cmax) was 890 ng/mL, the Tmax came to 15 min and the half-life is 114 min. Also, the response at TAAR1 receptor was half-maximal at 21.3 nM (EC50).

`Cc1nc([C@@H]2CNCCO2)ccc1F` (single isomer, unassigned) [Example 19-2, 2-(5-fluoro-6-methyl-2-pyridyl)morpholine]: in data set [1] (Brain), the AUC(0-t) came to 8640 ng·h/mL, the maximum concentration (Cmax) came out at 2510 ng/mL, the time to peak (Tmax) was determined as 120 min and the half-life is 66 min. For the same compound, in data set [1] (Plasma), the AUC(0-t) was 2760 ng·h/mL, the highest level (Cmax) was 705 ng/mL, the time of peak concentration (Tmax) came to 120 min and the half-life was 222 min. In addition, a half-maximal response at TAAR1 receptor (EC50) required 13.6 nM.

As to `[2H]c1ccc(C2CNCCO2)cc1` (single isomer, unassigned) [Example 28-2, 2-(phenyl-4-d)morpholine], in data set [1] (Brain), the AUC(0-t) stood at 3980 ng·h/mL, the Cmax worked out at 2110 ng/mL, the Tmax turned out to be 15 min and the half-life is 78 min. In data set [1] (Plasma), the AUC(0-t) was 2820 ng·h/mL, the Cmax turned out to be 1340 ng/mL, the Tmax was determined as 15 min and the half-life was 84 min. The same compound returned a concentration giving a half-maximal response (EC50) at TAAR1 receptor of 3 nM. The “Total distance (m, Mean ± SEM) 60 minutes” value in data set [2] (compound 3 mg/kg oral + PCP 5 mg/kg i.p.) is 113.09 ± 12.69 m.

Turning to `c1ccc(C2CNCCO2)nc1` (stereo not shown) [Compound A, 2-(Pyridin-2-yl)morpholine], on TAAR1 receptor, a half-maximal effect (EC50) was put at 7.1 nM. Besides, the “Total distance (m, Mean ± SEM) 60 minutes” value in data set [2] (compound 6 mg/kg oral + PCP 5 mg/kg i.p.) is 113.09 ± 12.69 m.

Consider `[2H]c1ccnc([C@@H]2CNCCO2)c1` (single isomer, unassigned) [Example 7-2, 2-(pyridin-2-yl-4-d)morpholine], for which, in data set [1] (Brain), the AUC(0-t) was 4410 ng·h/mL, the Cmax turned out to be 2500 ng/mL, the Tmax stood at 30 min and the half-life was 54 min. Moreover, in data set [1] (Plasma), the area under the curve AUC(0-t) is 2840 ng·h/mL, the concentration peaked (Cmax) at 1560 ng/mL, the time of peak concentration (Tmax) turned out to be 30 min and the half-life was 48 min. Also, on TAAR1 receptor, the concentration for a half-maximal effect (EC50) was 5.9 nM.

Take `Clc1cccc(C2CNCCO2)c1` (single isomer, unassigned) [Example 46-1, 2-(3-Chlorophenyl)morpholine]: at TAAR1 receptor, a half-maximal response (EC50) required 17.7 nM.

At TAAR1 receptor, `Clc1ccc(C2CNCCO2)nc1` (single isomer, unassigned) [Example 25-2] had an EC50 of 207 nM.

For the compound `Cc1cccc([C@@H]2CNCCO2)c1` [Example 47-2], the midpoint of the response at TAAR1 receptor, the EC50, lay at 11.5 nM.

As to `[2H]c1ccc([C@H]2CNCCO2)nc1` (single isomer, unassigned) [Example 6-2, 2-(pyridin-2-yl-5-d)morpholine], in data set [1] (Brain), the AUC(0-t) was determined as 6480 ng·h/mL, the Cmax turned out to be 3030 ng/mL, the Tmax is 15 min and the half-life was 48 min. In addition, in data set [1] (Plasma), the AUC(0-t) was determined as 4300 ng·h/mL, the peak level (Cmax) was 2050 ng/mL, the Tmax stood at 15 min and the half-life is 48 min. The compound further returned a 50% effective concentration (EC50) on TAAR1 receptor of 3.4 nM.

Take `Fc1cccc([C@@H]2CNCCO2)c1` [Example 48-1]: the EC50 at TAAR1 receptor was determined as 2.1 nM.

One may read the AUC(0-t) as the area under the concentration-time curve up to a stated or last time point. The Cmax is the peak of the concentration-time curve. By Tmax is commonly meant the time at which the peak concentration occurs. For orientation: half-life means the time in which the quantity being followed falls by half. Read a high half-life as slow loss. As a reminder, the EC50 is the concentration that produces a half-maximal response. Low values mean an effect from little substance, high ones a need for much substance.
